As a reminder, the MIC is the lowest concentration that inhibits growth of the organism. Read a high MIC as a less susceptible organism.

The test system of the assay is S. pneumoniae ATCC 49619. Nature of the assay: Minimal inhibitory concentration (MIC) by microdilution method (CLSI M7-A7). Type of assay: cell-based, Streptococcus pneumoniae. The following applies: Streptococcus pneumoniae, ATCC49619, cation-adjusted Mueller-Hinton Broth supplemented with 3% (v/v) lysed horse blood. The procedure: Minimal inhibitory concentrations (MICs; mg/l) were determined in cation-adjusted Mueller-Hinton Broth (supplemented with 3% (v/v) lysed horse blood for testing Streptococcus pneumoniae) by a microdilution method following the description given in “Methods for Dilution Antimicrobial Susceptibility Tests for Bacteria that Grow Aerobically”, Approved standard, 7th ed., Clinical and Laboratory Standards Institute (CLSI) Document M7-A7, Wayne, Pa., USA, 2006.
On the technique in general: Broth dilution looks for growth in wells or tubes with falling amounts of substance.

The structures appear in SMILES notation. In brackets after ≈: the same amount, converted by molar mass.

Regarding `CCNC(=O)Nc1cc2c(-c3ccccc3)cccc2cn1` [Example 43, 1-ethyl-3-(5-phenyl-isoquinolin-3-yl)-urea], the MIC was 8 mg/L (≈ 27.5 µM).

In turn, `CCNC(=O)Nc1cc2c(-c3cc(C)nc(C)c3)ccc(C)c2cn1` [Example 44, 1-[5-(2,6-dimethyl-pyridin-4-yl)-8-methyl-isoquinolin-3-yl]-3-ethyl-urea] had an MIC of 4 mg/L (≈ 12 µM). This MIC is about 2-fold lower than that of the molecule before.

Consider `CCNC(=O)Nc1cc2c(-c3ccnc(N)c3)ccc(C)c2cn1` [Example 45, 1-[5-(2-amino-pyridin-4-yl)-8-methyl-isoquinolin-3-yl]-3-ethyl-urea], for which the MIC is 2 mg/L (≈ 6.22 µM).

The molecule `CCNC(=O)Nc1cc2c(F)ccc(Cc3ccccc3)c2cn1` [Example 46, 1-(8-benzyl-5-fluoro-isoquinolin-3-yl)-3-ethyl-urea] came in with an MIC of 1 mg/L (≈ 3.09 µM).

`CCNC(=O)Nc1cc2c(F)c(-c3cccnc3)cc(C)c2cn1` [Example 47, 1-ethyl-3-(5-fluoro-8-methyl-6-pyridin-3-yl-isoquinolin-3-yl)-urea] gave an MIC of 2 mg/L (≈ 6.17 µM).

`CCNC(=O)Nc1cc2c(F)c(-c3ccccn3)cc(C)c2cn1` [Example 48, 1-ethyl-3-(5-fluoro-8-methyl-6-pyridin-2-yl-isoquinolin-3-yl)-urea] yielded an MIC of 1 mg/L (≈ 3.08 µM). Compared with the last molecule, the MIC is about 2-fold lower.

The molecule `CCNC(=O)Nc1cc2c(F)c(NCc3ccccc3)cc(Cl)c2cn1` [Example 49, 1-(6-benzylamino-8-chloro-5-fluoro-isoquinolin-3-yl)-3-ethyl-urea] showed an MIC of 2 mg/L (≈ 5.36 µM).

The molecule `CCNC(=O)Nc1cc2c(-c3cccnc3)ccc(C)c2cn1` [Example 50, 1-ethyl-3-(8-methyl-5-pyridin-3-yl-isoquinolin-3-yl)-urea] gave an MIC of 8 mg/L (≈ 26.1 µM).

Molecule `CCNC(=O)Nc1cc2c(F)ccc(NC(=O)c3ccccc3)c2cn1` [Example 51, N-[3-(3-ethyl-ureido)-5-fluoro-isoquinolin-8-yl]-benzamide] came in with an MIC of 1 mg/L (≈ 2.84 µM).

The molecule `CCNC(=O)Nc1cc2cc(NC(=O)c3ccccc3)ccc2cn1` [Example 52, N-[3-(3-ethyl-ureido)-isoquinolin-6-yl]-benzamide] registered an MIC of 2 mg/L (≈ 5.98 µM). Compared with the last molecule, the MIC is about 2-fold higher.

For `CCNC(=O)Nc1cc2c(F)c(-c3cccnc3)cc(-c3cccnc3)c2cn1` [Example 53, 1-ethyl-3-(5-fluoro-6,8-di-pyridin-3-yl-isoquinolin-3-yl)-urea], the MIC turned out to be 8 mg/L (≈ 20.6 µM). This MIC lies about 4-fold higher than the previous one.

As to `CCNC(=O)Nc1cc2cc(N)cc(C)c2cn1` [Example 54, 1-(6-amino-8-methyl-isoquinolin-3-yl)-3-ethyl-urea], the MIC was determined as 16 mg/L (≈ 65.5 µM).

As for `CCNC(=O)Nc1cc2c(F)ccc(NCc3cccnc3)c2cn1` [Example 55, 1-ethyl-3-{5-fluoro-8-[(pyridin-3-ylmethyl)-amino]-isoquinolin-3-yl}-urea], 8 mg/L (≈ 23.6 µM) was the least that counted as inhibitory (MIC).

In turn, `CCNC(=O)Nc1cc2c(F)ccc(NCc3ccccc3)c2cn1` [Example 56, 1-(8-benzylamino-5-fluoro-isoquinolin-3-yl)-3-ethyl-urea] showed an MIC of 8 mg/L (≈ 23.6 µM).

Molecule `CCNC(=O)Nc1cc2c(F)c(NCc3ccccc3)cc(C)c2cn1` [Example 57, 1-(6-benzylamino-5-fluoro-8-methyl-isoquinolin-3-yl)-3-ethyl-urea] displayed an MIC of 0.5 mg/L (≈ 1.42 µM).

Consider `CCNC(=O)Nc1cc2cc(NCc3ccccc3)cc(C)c2cn1` [Example 58, 1-(6-benzylamino-8-methyl-isoquinolin-3-yl)-3-ethyl-urea], for which inhibition of growth (MIC) required 8 mg/L (≈ 23.9 µM). Against the preceding molecule, the MIC is about 16-fold higher.

As to `CCNC(=O)Nc1cc2c(CCC(N)=O)ccc(C)c2cn1` [Example 59, 3-[3-(3-ethyl-ureido)-8-methyl-isoquinolin-5-yl]-propionamide], it took 4 mg/L (≈ 13.3 µM) to inhibit growth (MIC).

`CCNC(=O)Nc1cc2c(F)ccc(C)c2cn1` [Example 60, 1-ethyl-3-(5-fluoro-8-methyl-isoquinolin-3-yl)-urea]: the MIC was 4 mg/L (≈ 16.2 µM).

`CCNC(=O)Nc1cc2c(-c3ccncc3)ccc(C)c2cn1` [Example 61, 1-ethyl-3-(8-methyl-5-pyridin-4-yl-isoquinolin-3-yl)-urea]: the MIC is 1 mg/L (≈ 3.26 µM).

Molecule `CCNC(=O)Nc1cc2cc(NC(=O)c3cncs3)cc(C)c2cn1` [Example 62, thiazole-5-carboxylic acid [3-(3-ethyl-ureido)-8-methyl-isoquinolin-6-yl]-amide] yielded an MIC of 0.25 mg/L (≈ 0.703 µM).

Molecule `CCNC(=O)Nc1cc2c(NCC)ccc(C)c2cn1` [Example 63, 1-ethyl-3-(5-ethylamino-8-methyl-isoquinolin-3-yl)-urea] showed an MIC of 2 mg/L (≈ 7.34 µM). Compared with the last molecule, the MIC is about 8-fold higher.

`CCNC(=O)Nc1cc2c(-c3cscc3C)ccc(C)c2cn1` [Example 64, 1-ethyl-3-[8-methyl-5-(4-methyl-thiophen-3-yl)-isoquinolin-3-yl]-urea] displayed an MIC of 1 mg/L (≈ 3.07 µM).

On to `CCNC(=O)Nc1cc2c(-c3ccc(NC(=O)OC)cc3)ccc(C)c2cn1` [Example 65, {4-[3-(3-ethyl-ureido)-8-methyl-isoquinolin-5-yl]-phenyl}-carbamic acid methyl ester], for which the MIC was found to be 2 mg/L (≈ 5.28 µM).

`CCNC(=O)Nc1cc2c(-c3cccnc3F)ccc(C)c2cn1` [Example 66, 1-ethyl-3-[5-(2-fluoro-pyridin-3-yl)-8-methyl-isoquinolin-3-yl]-urea]: 4 mg/L (≈ 12.3 µM) was the least that counted as inhibitory (MIC).

In turn, `CCNC(=O)Nc1cc2c(-c3cccc4cnccc34)ccc(C)c2cn1` [Example 67, 1-ethyl-3-(8-methyl-[5,5′]biisoquinolinyl-3-yl)-urea] showed a minimal inhibitory concentration (MIC) of 16 mg/L (≈ 44.9 µM).

Molecule `CCNC(=O)Nc1cc2c(-c3cccc(O)c3)ccc(C)c2cn1` [Example 68, 1-ethyl-3-[5-(3-hydroxy-phenyl)-8-methyl-isoquinolin-3-yl]-urea] returned an MIC of 4 mg/L (≈ 12.4 µM). Compared with the last molecule, the MIC is about 4-fold lower.

`CCNC(=O)Nc1cc2c(-c3cccc4[nH]ccc34)ccc(C)c2cn1` [Example 69, 1-ethyl-3-[5-(1H-indol-4-yl)-8-methyl-isoquinolin-3-yl]-urea] registered an MIC of 16 mg/L (≈ 46.5 µM).

Regarding `CCNC(=O)Nc1cc2cccc(NC(=O)c3ccccc3)c2cn1` [Example 70, N-[3-(3-ethyl-ureido)-isoquinolin-8-yl]-benzamide], the MIC worked out at 16 mg/L (≈ 47.8 µM).

The molecule `CCNC(=O)Nc1cc2cccc(NCc3cccnc3)c2cn1` [Example 71, 1-ethyl-3-{8-[(pyridin-3-ylmethyl)-amino]-isoquinolin-3-yl}-urea] returned an MIC of 16 mg/L (≈ 49.8 µM).

Molecule `CCNC(=O)Nc1cc2c(-c3ccncc3)ccc(-c3ccncc3)c2cn1` [Example 72, 1-(5,8-di-pyridin-4-yl-isoquinolin-3-yl)-3-ethyl-urea] returned an MIC of 2 mg/L (≈ 5.41 µM).

Take `CCNC(=O)Nc1cc2c(Br)ccc(OC)c2cn1` [Example 73, 1-(5-bromo-8-methoxy-isoquinolin-3-yl)-3-ethyl-urea]: the lowest concentration to inhibit growth (MIC) was 8 mg/L (≈ 24.7 µM).

On to `CCNC(=O)Nc1cc2c(F)ccc(-c3ccc(C(=O)O)cc3)c2cn1` [Example 74, 4-[3-(3-ethyl-ureido)-5-fluoro-isoquinolin-8-yl]-benzoic acid], for which the MIC was 2 mg/L (≈ 5.66 µM).

`CCNC(=O)Nc1cc2cc(-c3cncnc3)cc(C)c2cn1` [Example 75, 1-ethyl-3-(8-methyl-6-pyrimidin-5-yl-isoquinolin-3-yl)-urea] returned an MIC of 4 mg/L (≈ 13 µM). Compared with the last molecule, the MIC is about 2-fold higher.

Molecule `CCNC(=O)Nc1cc2cc(-c3cccc(OC)c3)cc(C)c2cn1` [Example 76, 1-ethyl-3-[6-(3-methoxy-phenyl)-8-methyl-isoquinolin-3-yl]-urea] gave an MIC of 1 mg/L (≈ 2.98 µM).

Molecule `CCNC(=O)Nc1cc2cc(-c3ccc4c(c3)OCO4)cc(C)c2cn1` [Example 77, 1-(6-(benzo[1,3]dioxol-5-yl)-8-methyl-isoquinolin-3-yl)-3-ethyl-urea] came in with an MIC of 1 mg/L (≈ 2.86 µM).

As for `CCNC(=O)Nc1cc2cc(-c3ccco3)cc(C)c2cn1` [Example 78, 1-ethyl-3-(6-furan-2-yl-8-methyl-isoquinolin-3-yl)-urea], the lowest concentration to inhibit growth (MIC) was 2 mg/L (≈ 6.77 µM).

Take `CCNC(=O)Nc1cc2cc(-c3ccc4ccccc4c3)cc(C)c2cn1` [Example 79, 1-ethyl-3-(8-methyl-6-naphthalen-2-yl-isoquinolin-3-yl)-urea]: the MIC is 1 mg/L (≈ 2.81 µM).

Regarding `CCNC(=O)Nc1cc2cc(-c3cscc3C)cc(C)c2cn1` [Example 80, 1-ethyl-3-[8-methyl-6-(4-methyl-thiophen-3-yl)-isoquinolin-3-yl]-urea], inhibition of growth (MIC) required 16 mg/L (≈ 49.2 µM).

In turn, `CCNC(=O)Nc1cc2cc(-c3ccc(CNC(C)=O)cc3)cc(C)c2cn1` [Example 81, N-{4-[3-(3-ethyl-ureido)-8-methyl-isoquinolin-6-yl]-benzyl}-acetamide] came in with an MIC of 0.5 mg/L (≈ 1.33 µM).

As to `CCNC(=O)Nc1cc2cc(-c3cccnc3Cl)cc(C)c2cn1` [Example 82, 1-[6-(2-chloro-pyridin-3-yl)-8-methyl-isoquinolin-3-yl]-3-ethyl-urea], inhibition of growth (MIC) required 8 mg/L (≈ 23.5 µM).

Molecule `CCNC(=O)Nc1cc2cc(-c3ccc4c(c3)CCO4)cc(C)c2cn1` [Example 83, 1-[6-(2,3-dihydro-benzofuran-5-yl)-8-methyl-isoquinolin-3-yl]-3-ethyl-urea] had an MIC of 1 mg/L (≈ 2.88 µM).

`CCNC(=O)Nc1cc2cc(-c3cccc(C(=O)OCC)c3)cc(C)c2cn1` [Example 84, 3-[3-(3-ethyl-ureido)-8-methyl-isoquinolin-6-yl]-benzoic acid ethyl ester] gave a minimum inhibitory concentration (MIC) of 0.5 mg/L (≈ 1.32 µM).

The molecule `CCNC(=O)Nc1cc2cc(-c3ccccc3C(=O)OCC)cc(C)c2cn1` [Example 85, 2-[3-(3-ethyl-ureido)-8-methyl-isoquinolin-6-yl]-benzoic acid ethyl ester] registered an MIC of 16 mg/L (≈ 42.4 µM).

Consider `CCNC(=O)Nc1cc2cc(-c3ccccc3NC(C)=O)cc(C)c2cn1` [Example 86, N-{2-[3-(3-ethyl-ureido)-8-methyl-isoquinolin-6-yl]-phenyl}-acetamide], for which the MIC came out at 16 mg/L (≈ 44.1 µM).

`CCNC(=O)Nc1cc2cc(-c3cncc(C(=O)OC)c3)cc(C)c2cn1` [Example 87, 5-[3-(3-ethyl-ureido)-8-methyl-isoquinolin-6-yl]-nicotinic acid methyl ester] gave an MIC of 8 mg/L (≈ 22 µM).

`CCNC(=O)Nc1cc2cc(-c3cccc(F)c3)cc(C)c2cn1` [Example 88, 1-ethyl-3-[6-(3-fluoro-phenyl)-8-methyl-isoquinolin-3-yl]-urea] returned an MIC of 2 mg/L (≈ 6.18 µM).

Source of the values: patent publication US20130096119A1, “Isoquinolin-3-Ylurea Derivatives” (priority 2010, published 2013).
